{"source": "patent US20070213318A1", "about": "“C[…] WITH IMPROVED BLOOD-BRAIN BARRIER PE[…] THE TREATMENT OF DISEASES ACCOMPANIED BY COGNITIVE IMPAIRMENT” (priority 2006, published 2007)", "origin": "cited, not measured here", "key": {"human nAChR subtypes": {"test_system": "human nAChR subtypes", "conditions": "below the concentration range at which AChE inhibition takes place"}}, "note": "Like-named read-outs stand apart in the source and are kept apart here.", "data": [{"smiles": "COc1ccc2c3c1O[C@H]1C[C@@H](O)C=C[C@@]31CCN(C)C2", "note": "[Galanthamine]", "values": [{"measurement": "concentrations at which the APL effect is observed", "setting": "human nAChR subtypes", "result": "submicromolar concentrations"}, {"measurement": "tissue to plasma ratio (T/P)", "setting": "female rat spleen", "result": "~20"}, {"measurement": "tissue to plasma ratio (T/P)", "setting": "male and female rat, kidney", "result": "10-15"}, {"measurement": "tissue to plasma ratio (T/P)", "setting": "male and female rat, salivary and adrenal gland", "result": "7-14"}, {"measurement": "tissue to plasma ratio (T/P)", "setting": "rat, lung, liver, heart, skeletal muscle and testes", "result": "2-4"}]}]}
